Laboratory results reported in US5079257A, “Indoloquinone compounds” (priority 1986, dated 1992).
Converted amounts (≈) assume the structure as drawn. Like-named read-outs stand apart in the source and are kept apart here.

What was measured:
[1] = in vitro and in mice; cited from earlier work
[2] = tested on: L1210 cells; assay: L1210 activity (bioliquid assay), cytotoxicity; assay type: cell-based; conditions: Mus musculus
Outline: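 Suspension culture in RPMI with 15% FCS and 2-mercaptoethanol (60 μmol). Continuous compound exposure for 48 hours at 37° C under 5% CO2 in humidified air. Cell numbers then counted on an electronic microcell counter.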

[3] = in vivo; set-up: species or system mice; conditions: mouse, IP, single dose, suspension in carboxymethyl cellulose (2%)
Procedure: The acute toxicity experiments were carried out with male C5 Black/Rij X CBA/Rij Fl hybrid mice at TNO, Rijswijk. The drugs were administrated IP as suspensions in carboxymethyl cellulose (2%) as a single dose at the first day.

[4] = tested on: R-1 cells (Rhabdomyosarcoma Cells); assay: R-1 activity (bioliquid assay), cytotoxicity; assay type: cell-based; conditions: Rhabdomyosarcoma cell
Outline: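 Rhabdomyosarcoma R-1 cells (~10^6 per dish) in Dulbecco's medium with 10% FCS were exposed to drug solution, which was then replaced by fresh medium. Cells were trypsinized after 48 hours and counted electronically.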

[5] = tested on: L1210; assay: In vivo L1210 experiments (TNO Rijswijk); set-up: species or system mice
Procedure: The in vivo L1210 experiments were carried out in male Balb/c X DBA.2 Fl hybrid mice at TNO, Rijswijk.
In these experiments also, the drugs were administered IP as suspensions in carboxymethyl cellulose […] as a single dose at the first day.

[6] = Half-wave reduction potentials / polarography (University of Utrecht); assay type: physicochemical
Excerpt: *The halve wave reduction potentials (E1/2) have been determined at the
Pharmaceutical Laboratory of University of Utrecht. Only the first
(quinone) reduction potential has been given.
Additional evidence for the occurrence of a bioreductive activation mechanism during the cytotoxic action of indoloquinones (II) was obtained via electrochemical studies, which have been carried out at the Pharmaceutical Laboratory of the University of Utrecht. […]

[7] = tested on: L1210 cells; assay: L1210 activity in clonogenic assay (TNO Rijswijk); assay type: cell-based; conditions: Mus musculus, L1210, 192 h, read-out: ID-50 L1210, clonogenic assay
Excerpt: The indoloquinones II (formula II) have been tested in respect of their cytotoxic activity against L1210 cells and R-1 cells (Rhabdomyosarcoma Cells) in a bioliquid assay at the department of oncology of the Free University of Amsterdam (Table I). In addition to this seven compounds (E.O. 1, E.O. 2, E.O. 4, E.O. 7, E.O. 9, E.O. 16 and E.O. 17) have been tested on L1210 activity in a clonogenic assay at TNO, Rijswijk. Further, the lowest active doses of the compounds E.O. 1, E.O. 2, E.O. 4 and E.O. 9 have been determined at TNO Rijswijk, according to the method described by Lamberts et al. [Oncology, 40, 301 (1983)]. (Table II). Eight indoloquinones (E.O. 1, E.O. 2, E.O. 4, E.O. 4A, E.O. 8, E.O. 9, E.O. 33 and E.O. 35) have been tested in a panel of five human tumour lines (TNO Rijswijk; Table III). From the latter group three indoloquinones (E.O. 1, E.O. 4 and E.O. 9) have been selected for a cytotoxicity study, involving five slowly growing human tumour lines (University of Freiburg; Table IV).
The L1210 clonogenic assay used was an improved variant of the method described earlier by H. MARTIN et al. [Cancer Chemother., Rep., 51 451 (1967)] and L. M. van Putten et al. [Cancer Treat. Rep., 60, 373 (1976)] for the growth into colonies of L1210 cells in a soft agar medium. From a suspension culture ~100 L1210 Cells (0.1 ml) were plated into […] culture dishes (Falcon), containing 1 ml of soft agar growth medium and the compound to be tested in appropriate concentrations. The soft agar growth medium consisted of Dulbecco medium supplemented with 15.8% horse serum, 60 μmol 2-mercapto-ethanol, 20 mg/ml L-asparagine and 0.3% bacto agar (Difco).
The culture dishes were incubated at 37° C. in an atmosphere of 1% CO2 in humidified air for 8 days. After this period of continuous drug exposure, colonies were counted and dose-effect curves were made.

[8] = tested on: T 24 cells; bladder carcinoma; assay: In vitro panel of human tumour lines (TNO): T 24; assay type: cell-based; conditions: about 72 hours; further: key: -: no inhibition of cell growth; +: total cell-kill
Procedure: (§1) Compounds E.O. 1, E.O. 2, E.O. 4, E.O. 4A, E.O. 8, E.O. 9, […], E.O. 33, and E.O. 35 were tested for their activity against five human tumour cell lines at the Radiobiological Institute TNO Rijswijk.
(§2) The new in vitro prescreen uses human tumour clones; it was set up by Dr. P. Lelieveld at TNO Rijswijk and comprises testing compounds in a bioliquid assay for their cytostatic activity against the following five human tumour lines:
(§3) After a continuous exposure to the drugs to be tested and to Adriamycin in `24 well tissue culture clusters, type 3524 (Costar)`, the remaining cells are fixed and stained. Using increasing drug concentrations the inhibiting concentration can be estimated qualitatively.
(§4) Cells: the human tumour cells are maintained in Dulbecco's medium supplemented with 10 percent foetal calf serum.
(§5) A, T and Z cell suspensions: 5·10^4 cells/ml
(§6) The cells were grafted into 16 mm wells for 48 hours (0.5 ml cell suspension per well was used).
(§7) Drugs: the compound to be tested was dissolved in appropriate concentrations in a mixture of Hepes-buffered Hanks' balanced salt solution and ethanol. The drug solutions (0.05 ml) were added to the different wells. The final ethanol concentration in each well was less than one percent.
(§8) The cells were continuously incubated with the compound under test at 37° in an atmosphere of 10 percent CO2 in humidified air for about 72 hours.
(§9) Determination of the inhibiting dose: the cells were fixed and stained with a solution of crystal violet in methanol/formaldehyde.

[9] = Cytotoxic activity (test not specified); assay type: cell-based
[10] = tested on: A 204 cells; rhabdomyosarcoma; assay: In vitro panel of human tumour lines (TNO): A 204; assay type: cell-based; conditions: about 72 hours; further: key: -: no inhibition of cell growth; +: total cell-kill
Procedure: as §1, §2, §3, §4, §5, §6, §7, §8, §9

[11] = tested on: MCF7 breast cancer cells; assay: In vitro panel of human tumour lines (TNO): MCF-7; assay type: cell-based; conditions: about 72 hours; further: key: -: no inhibition of cell growth; +: total cell-kill
Procedure: as §1, §2, §3, §4
(§10) M and W cell suspensions: 10^5 cells/ml.
as §6, §7, §8, §9

[12] = tested on: WiDr cells; colon tumour; assay: In vitro panel of human tumour lines (TNO): WiDr; assay type: cell-based; conditions: about 72 hours; further: key: -: no inhibition of cell growth; +: total cell-kill
Procedure: as §1, §2, §3, §4, §10, §6, §7, §8, §9

[13] = tested on: IgR37 cells melanoma; assay: In vitro panel of human tumour lines (TNO): IgR-37; assay type: cell-based; conditions: about 72 hours; further: key: -: no inhibition of cell growth; +: total cell-kill
Procedure: as §1, §2, §3, §4, §5, §6, §7, §8, §9

[14] = tested on: Ovarian (MRI-H-207) line; assay type: in vivo, human; conditions: 5 mg/kg, days of treatment 0.7
Excerpt: The xenograft experiments have been carried by Dr. H. H. Fiebig of the University of Freiburg [Lung-NSCLC (LXGF) line, Renal line, Breast line; See: H. H. Fiebig et al., Behring Inst. Mitt., 74 343] and by Dr. E. Boven of the Free University Hospital Amsterdam [Ovarian (MRI-H-207) line; See: E. Boven et al., Cancer Res., 45, 86 (1985) and E. Boven et al., Eur. J. Clin. Oncol., 21, 1253 (1985)].
Mice: C57B1 athymic (nu/nu) female mice, 8 to 10 weeks of age were used for s.c. bilateral implantation of tumour fragments 2 mm diameter.
Treatment: E.O. 9 was dissolved in saline at a concentration of 0.5 mg/ml prior to administration. Drug doses and schedules were derived from studies in experimental murine tumour systems and from orientation studies in non-tumour-bearing nude mice. Treatment was started i.v. when tumours measured 50-150 mm^3. After randomization a group of 6-7 tumour-bearing mice was treated and a group of 5-6 tumour-bearing mice served as control.
Evaluation of efficacy: Tumours were measured twice weekly in three dimensions. Efficacy was expressed as the mean of relative tumour volume in treated animals vs. that in control animals×100 (% T/C). The optimal value was calculated within 35 days after the last injection. Toxic death (dead mice within two weeks after the last injection) were excluded from the evaluation.
MRI-H-207: An undifferentiated adenocarcinoma kindly provided by Dr. A. E. Bogden, Worcester, Mass, with a doubling time of 3-5 days.

[15] = tested on: breast, pancreatic and prostatic adenocarcinomas, colon, bladder, lung and gastro-intestinal cancer; conditions: cited from earlier work
[16] = tested on: supercoiled covalently closed circular (CCC) DNA; conditions: reducing agent, presence of oxygen; cited from earlier work
[17] = tested on: DNA; conditions: cited from earlier work
[18] = tested on: L1210; conditions: 3-6 mg/kg; Remers et al., J. Med. Chem. 26 16 (1983); cited from earlier work
[19] = 8 days continuous exposure, TNO Rijswijk

SMILES: COC1=C(C)C(=O)c2c(c(COC(N)=O)c3n2CCC3)C1=O [7-methoxymitosene]
- antibacterial activity [1]: important antibacterial activity in vitro and in mice

SMILES: COC1=CC(=O)c2c(c(CO)c(/C=C/CO)n2C)C1=O [E.O. 7, 3-Hydroxymethyl-5-methoxy-1-methyl-2-[1H-indole-4,7-dione]prop-β-en-α-ol]
- IC50 ([2]; L1210, Table I, bioliquid assay, 48 hours, read-out: ID-50 L1210): 0.5 µg/mL (≈ 1.8 µM)
- LD50 [3]: > 100 mg/kg
- IC50 ([4]; Table I, bioliquid assay, read-out: ID-50 R-1): 4.2 µg/mL (≈ 15.1 µM)
- % T/C ([5]; 250 mg/kg IP single dose): tox.
- direct current polarogram ([6]; DC-polarography): a reduction wave representing the reversible reduction of the benzoquinone nucleus
- half-wave potential E1.2, wave I ([6]; pH = 8 vs Ag/AgCl): -367 mV
- IC50 [7, 19]: 2.2 µg/mL (≈ 7.93 µM)

SMILES: CCCCn1c(/C=C/CO)c(CO)c2c1C(=O)C=C(OC)C2=O [E.O. 16, 3-Hydroxymethyl-5-methoxy-1-butyl-2-[1H-indole-4,7-dione]prop-β-en-α-ol]
- LD50 [3]: 80 mg/kg
- response vs control in vivo at 80 mg/kg ([5]; Mus musculus, L1210, 80 mg/kg IP single dose, read-out: % T/C): 89%
- response vs control in vivo at 100 mg/kg ([5]; Mus musculus, L1210, 100 mg/kg IP single dose, read-out: % T/C): 100%
- IC50 [7, 19]: 0.9 µg/mL (≈ 2.82 µM)

SMILES: CCCCn1c(/C=C/CO)c(CO)c2c1C(=O)C=C(N1CC1)C2=O [E.O. 17, 5-Aziridino-3-hydroxymethyl-1-butyl-2-[1H-indole-4,7-dione]prop-β-en-αol]
- LD50 [3]: 50 to 80 mg/kg
- IC50 [7]: 0.3 µg/mL (≈ 0.908 µM)

SMILES: COC(=O)/C=C/c1c(C(=O)OC)c2c(n1C)C(=O)C=C(N1CC1)C2=O [E.O. 22, Methyl 5-aziridino-3-methoxycarbonyl-1-methyl-2-[1H-indole-4,7-dione]acrylate]
- IC50 ([2]; L1210, 48 h, read-out: ID-50 L1210, Table IA, para-indoloquinone diesters): 0.01 µg/mL (≈ 0.029 µM)
- in vitro activity score, T 24 ([8]; 0.01 μg/ml): -
- in vitro activity score, T 24 ([8]; 0.1 μg/ml): -
- in vitro activity score, T 24 ([8]; 1.0 μg/ml): +
- cytotoxic activities [9]: high cytotoxic activities
- in vitro activity score, A 204 ([10]; 0.01 μg/ml): -
- in vitro activity score, A 204 ([10]; 0.1 μg/ml): -
- in vitro activity score, A 204 ([10]; 1.0 μg/ml): +
- IC50 ([4]; read-out: ID-50 R-1, Table IA, para-indoloquinone diesters): 0.5 µg/mL (≈ 1.45 µM)
- in vitro activity score, MCF-7 ([11]; 0.01 μg/ml): -
- in vitro activity score, MCF-7 ([11]; 0.1 μg/ml): -
- in vitro activity score, WiDr ([12]; 0.01 μg/ml): -
- in vitro activity score, WiDr ([12]; 0.1 μg/ml): -
- E1/2, halve wave reduction potential ([6]; Table IA, only the first (quinone) reduction potential): -179 mV
- in vitro activity score, IgR-37 ([13]; 0.01 μg/ml): -
- in vitro activity score, IgR-37 ([13]; 0.1 μg/ml): -
- in vitro activity score, IgR-37 ([13]; 1.0 μg/ml): +

SMILES: CO[C@@]12[C@H](COC(N)=O)C3=C(C(=O)C(C)=C(N)C3=O)N1C[C@@H]1N[C@@H]12 [MMC, mitomycin C, reference compound]
- toxic deaths [14]: 1/7
- IC50 ([2]; L1210, 48 h, Table VIII, read-out: ID-50 L1210): 0.05 µg/mL (≈ 0.15 µM)
- in vitro activity score, T 24 ([8]; 0.01 μg/ml): -
- in vitro activity score, T 24 ([8]; 10 μg/ml): +
- in vitro activity score, A 204 ([10]; 0.01 μg/ml): -
- in vitro activity score, A 204 ([10]; 1.0 μg/ml): +
- in vitro activity score, A 204 ([10]; 10 μg/ml): +
- IC50 ([4]; Table VIII, read-out: ID-50 R-1): 0.03 µg/mL (≈ 0.0897 µM)
- antitumour activity [15]: active against breast, pancreatic and prostatic adenocarcinomas, and notably against colon, bladder, lung and gastro-intestinal cancer
- response vs control in vivo at 4 mg/kg ([5]; Mus musculus, L1210, 4 mg/kg IP single dose, read-out: % T/C): 200%
- response vs control in vivo at 5 mg/kg ([5]; Mus musculus, L1210, 5 mg/kg IP single dose, read-out: % T/C): 175%
- response vs control in vivo at 6 mg/kg ([5]; Mus musculus, L1210, 6 mg/kg IP single dose, read-out: % T/C): 175%
- in vitro activity score, MCF-7 ([11]; 0.01 μg/ml): -
- in vitro activity score, MCF-7 ([11]; 0.1 μg/ml): -
- in vitro activity score, MCF-7 ([11]; 10 μg/ml): +
- in vitro activity score, WiDr ([12]; 0.01 μg/ml): -
- in vitro activity score, WiDr ([12]; 0.1 μg/ml): -
- in vitro activity score, WiDr ([12]; 10 μg/ml): +
- DNA strand breaks [16]: produced single strand breaks
- DNA crosslinks [17]: caused rapid DNA instrand crosslinks in a dose dependent fashion
- max. effect (% T/C) [18]: 124-153%
- in vitro activity score, IgR-37 ([13]; 0.01 μg/ml): -
- in vitro activity score, IgR-37 ([13]; 1.0 μg/ml): +
- in vitro activity score, IgR-37 ([13]; 10 μg/ml): +
